Measured values published in patent US20110064773A1, “PHARMACEUTICAL COMPOSITIONS COMPRISING A THYROID HORMON AND THEIR THERAPEUTIC USE” (UNIVERSITE JOSEPH FOURIER, priority 2007, published 2011).
“Also recorded” adds a separate entry of the source.

Tests used:
Wistar rats [1] = assay: Body composition (adipose tissues, skeletal muscles, brown adipose tissue) of Wistar rats; format: in vivo, rat; conditions: for White adipose tissue mass / Brown adipose tissue: 2.5 μg/100 g continuous
Description: (§1) At the end of the experimental period, animals were sacrificed by decapitation, in order to avoid the well-known effects of general anesthetics on mitochondrial metabolism. Blood samples were immediately collected and plasma was frozen for subsequent determination of serum metabolites and hormones. Liver, muscles and fat depots were quickly excised and weighed. Liver median lobe was rapidly freeze-clamped. Muscles (plantaris, soleus and gastrocnemius) were frozen in isopentane precooled in liquid nitrogen. Mesenteric fat consisted of adipose tissue surrounding the gastro-intestinal tract from the gastro-oesophageal sphincter to the end of the rectum with special care taken in distinguishing and removing the pancreas. Retroperitoneal fat pad was taken as the distinct depot behind each kidney along the lumbar muscles. Epididymal fat consisted of adipose tissue on top of the epididymis. For subcutaneous depot measurement, a rectangular piece of skin was taken on the right side of each animal from the median line of the abdomen between the spine and the right hip to the first rib. Interscapular brown adipose tissue was removed and dissected free from adjacent muscles and white adipose tissue. The heart ventricles, the right kidney and the spleen were also excised, weighed and frozen.

Wistar rats [2] = assay: Plasma concentrations of glucose, triglycerides, cholesterol, FFA and HDL in Wistar rats; format: in vivo, rat; conditions: for Glycerol (FIG. 60C), plasma / HDL (FIG. 60D), plasma: 21 days
Description: These measurements were done on venous blood of the rats the day of the sacrifice.
as §1
Glucose and 3-hydroxybutyrate (3-HB) were measured enzymatically and non esterified fatty acid (NEFA) by colorimetric assay (Wako Chemicals).
Triglycerides and cholesterol were measured by classical routine automate apparatus.

ZDF rats = assay: Body weight and food intake of ZDF rats; format: in vivo, rat; conditions: 2.5 μg/100 g BW/day, 21 days
Experimental: Adult male rat bred in the animal room facilities of Laboratory of Fundamental and Applied Bioenergetics (Wistar strain) or purchased from Charles-River Laboratories, Domaine des oncins, L'ARBRESLE France [(genetically obese normoglycemic (Zucker or Fa/Fa) or diabetic (ZDF)] were caged individually in stainless steel hanging cages and maintained in a 22° C., 50±10% relative humidity and 12 h:12 h light:dark environment. All animals were fed ad libitum with a standard rat chow (Safe A04, Villemoisson, France) and tap water. Body mass and food intake were recorded twice/thrice a week and fresh food was provided at the same time to ensure minimal disturbance to the animals' food behavior.
Then ZDF rats were treated with low doses of rT3 for 21 days (2.5 μg/100 g BW/day) and the glycaemia, insulinaemia were measured after 8, 16 and 21 days.

Wistar rats [3] = assay: Oral glucose tolerance test (OGTT) and pancreas mass in non-diabetic Wistar rats; format: in vivo, rat; conditions: 2.5 μg/100 g BW, vs placebo
Experimental: Wistar rats are non-diabetic, non-obese without insulin-resistance, however like in humans, they tend to get slightly obese and insulin resistant with age. However this is supposed to be “physiological”.
The glucose resistance of these animals was tested by an oral glucose tolerance test (OGTT). Animals were fed with 2 g/kg BW of glucose and the Glucose concentration and Insulin concentration in blood were measured.

Wistar rats [4] = assay: OGTT in Wistar rats fed a high fat high sucrose diet; format: in vivo, rat; conditions: 8 weeks high fat high sucrose diet, rT3 2.5 μg/100 g, vs placebo
Experimental: A clinically relevant situation of a nutritionally-induced insulin resistance is known as a high fat high sucrose diet (HF). Therefore, the effects of rT3 on glucose and insulin response to an OGTT test were investigated. Wistar rats were fed a diet containing 45.5% fat (38% lard and 7.5% soy oil) and 34% carbohydrate (25% as sucrose) for 8 weeks. OGTT was performed as described above.

Wistar rats [5] = assay: Wistar rats treated with PTU and IOP (deiodinase inhibition, hypothyroid state) with or without rT3; format: in vivo, rat
Experimental: Thyroid Stimulating Hormone (TSH) and thyroxine (T4) were measured by radioimmunoassay with rat standards (RPA 554 Amersham bioscience, RIA FT4-immunotech, for TSH and T4 respectively).
In order to understand the mode of action of the treatments, Wistar rats were treated with pharmacological products that inhibit the synthesis and deiodination of thyroid hormones PTU and IOP.
Animals (Wistar) were submitted to a treatment by propyl-thiouracile (PTU in the drinking water) and iopanoic acid (IOP one sc-injection weekly) inducing a complete inhibition of all deiodinases (types I, II and III). Such treatment is responsible for the induction of a severe hypothyroid state. In addition this treatment impairs the peripheral metabolism of all thyroid hormones by deiodination. Some rats were also submitted to a sub-cutaneous administration of rT3 (2.5 μg/100 g). Three groups were constituted: controls, PTU+IOP and PTU+IOP+rT3 and duration of the experiment was 3 weeks.

[6] = tested on: nuclear receptors of the thyroid hormones, TRα-1 and TRβ-1; conditions: literature statements; cited from earlier work
[7] = 25 μg/100 g BW/day, continuous subcutaneous pellet, 8 days
[8] = 250 μg/kg BW pellet, three weeks, vs placebo, p<0.01
[9] = high dose 25 μg/100 g BW pellet, three weeks, vs placebo
[10] = low dose 2.5 μg/100 g BW, sub-cutaneous pellet, 21 days
[11] = Wistar rats, high dosage 25 μg/100 g BW
[12] = Wistar rats, high dose 250 μg/kg BW/day, day of sacrifice, vs placebo
[13] = Wistar rats, low dosage 2.5 μg/100 g BW
[14] = PTU+IOP alone vs placebo, or rT3 2.5 μg/100 g added to PTU+IOP
[15] = PTU+IOP alone, or rT3 (2.5 μg/100 g) added to PTU+IOP

N[C@@H](Cc1ccc(Oc2cc(I)c(O)c(I)c2)c(I)c1)C(=O)O [rT3, 3′,5′,3-triiodothyronine]
White adipose tissue mass (Wistar rats [1]; intra-peritoneal osmotic pump, 21 days): significant reduction
Brown adipose tissue (Wistar rats [1]; intra-peritoneal pump, 21 days): all treatments were effective
White adipose tissue mass (Wistar rats [1]; sub-cutaneous osmotic pump, 21 days): significant reduction
Brown adipose tissue (Wistar rats [1]; sub-cutaneous pump, 21 days): more significantly enhanced
Muscular mass (Wistar rats [1]; 25 μg/100 g BW, 8 days, whatever the administration (pellet, IP, per os, sc)): unchanged
White fatty (adipose) tissue mass (Wistar rats [1]; 25 μg/100 g BW, daily intra-peritoneal injection, 8 days): have not effects
White fatty (adipose) tissue mass (Wistar rats [1]; 25 μg/100 g BW, daily oral administration, 8 days): have not effects
White fatty (adipose) tissue mass (Wistar rats [1]; 25 μg/100 g BW, daily sub-cutaneous injection, 8 days): have not effects
Brown adipose tissue mass (Wistar rats [1]; [7]): significantly enhanced
White fatty (adipose) tissue mass (Wistar rats [1]; [7]): significant white fatty tissue mass reduction
Epididymal fat mass (Wistar rats [1]; 250 μg/kg BW pellet, three weeks, vs placebo): not different
Mesenteric fat mass (Wistar rats [1]; [8]): significantly lower
Retroperitoneal fat mass (Wistar rats [1]; [8]): significantly lower
Subcutaneous fat mass (Wistar rats [1]; [8]): significantly lower
Brown adipose tissue mass (Wistar rats [1]; [9]): significantly increased; also recorded: high increase
Muscle mass (lean body mass) (Wistar rats [1]; [9]): not affected at all; also recorded: do not affect
Muscle tissues mass (Wistar rats [1]; low dose 2.5 μg/100 g BW): do not affect
Brown adipose tissue mass (Wistar rats [1]; [10]): intermediate increase; also recorded: more significantly enhanced
White adipose tissue mass (fat mass) (Wistar rats [1]; [10]): reduces the fat mass with a lower efficiency; also recorded: significant reduction
Cholesterol plasmatic concentration (Wistar rats [2]; Wistar rats, 250 μg/kg BW/day, day of sacrifice, vs placebo): significantly lower
Glycerol (FIG. 60C), plasma (Wistar rats [2]; [11]): reduction
HDL (FIG. 60D), plasma (Wistar rats [2]; [11]): reduction
Plasma free fatty acids (FFA) (Wistar rats [2]; [12]): higher; also recorded: stimulates the liberation of FFA
Triglycerides plasmatic concentration (Wistar rats [2]; [12]): significantly lower; also recorded: degradation of triglycerides
Glycerol (FIG. 60C), plasma (Wistar rats [2]; [13]): reduction
HDL (FIG. 60D), plasma (Wistar rats [2]; [13]): reduction
Fasting glucose plasmatic concentration (Wistar rats [2]; normal (non diabetic) Wistar rats, 250 μg/kg BW/day, day of sacrifice, vs placebo): slightly increased
Appetite (food intake) (ZDF rats): not associated with a loose of appetite
Animal mass (body weight) (ZDF rats; vs placebo): slimmer; also recorded: reduced
AUC of the glucose concentration after OGTT (Wistar rats [3]; 2 g/kg glucose, 3 hours): slightly reduced, however not significantly
AUC of the insulin concentration after OGTT (Wistar rats [3]; 2 g/kg glucose, 3 hours): significantly lower
Pancreas mass (Wistar rats [3]): moderate, albeit significant, increase
Blood glucose, area under the curve (AUC) after OGTT (Wistar rats [4]): significant lowering
Blood glucose, change over time of plasma concentration after OGTT (Wistar rats [4]): significant lowering
Insulin levels, AUC after OGTT (Wistar rats [4]): significantly lower
Insulin levels, changes over time after OGTT (Wistar rats [4]): significantly lower
Animal mass (body weight) (Wistar rats [5]; 3 weeks, PTU+IOP alone vs controls, or rT3 2.5 μg/100 g sc added to PTU+IOP): enhances the decrease induced by PTU-IOP
Appetite (food intake) (Wistar rats [5]; 3 weeks, PTU-IOP with or without rT3 2.5 μg/100 g): remains unchanged
Energy expenditure (EE) (Wistar rats [5]; [14]): enhanced
Respiratory quotient (RQ) (Wistar rats [5]; [14]): enhanced
Activity of mGPdH (Wistar rats [5]; [15]): stimulates
Brown adipose tissue mass (Wistar rats [5]; [15]): also enhanced
Mitochondrial state 3 respiratory rate with GM, S and GMS (Wistar rats [5]; [15]): corrected the effect of PTU+IOP
Binding to the nuclear (TH) receptors [6]: very little affinity
